Test results published in US20250275987A1, “MODULATORS OF INTRACELLULAR CHLORIDE CONCENTRATION FOR USE IN THE TREATMENT OF COGNITIVE DECLINE” (FONDAZIONE ISTITUTO ITALIANO DI TECNOLOGIA, priority 2022, published 2025).

Key:
[1] = tested on: elderly mice; assay: Object localization (OL) test of spatial memory in elderly mice; type: in vivo; settings: 25 mg/kg i.p., vs vehicle, FIG. 3b
Description: FIG. 3 illustrates the evaluation of the efficacy of furosemide (KCC2 inhibitor) to restore impaired memory in elderly mice. a) Quantification of the discrimination index of the NOR test in young (n=13) and elderly (n=10) mice (two tailed t-test, ** P<0.01). b) Quantification of the discrimination index of the OL test in mice treated with vehicle (young, n=13, elderly, n=7) or furosemide (young, n=11, elderly, n=6) (two-way ANOVA, Tukey post hoc test, * P<0.05).
To evaluate memory capacity in the elderly mice, the novel object recognition (NOR) test was conducted. This test evaluates the long-term object recognition memory by measuring the capacity of the mice to recognize a novel object compared to familiar objects. […] Subsequently, to test the ability of the non-selective KCC2 inhibitor, furosemide, to restore poor memory, the object localization (OL) test was conducted in the presence of the drug. The object localization test evaluates spatial memory by measuring the ability of the mice to recognize the new position of a familiar object. The mice were treated with furosemide (25 mg/kg i.p.) or with the vehicle.

[2] = target: T1, KCC2 (Homo sapiens, UniProt Q9H2X9); assay: Thallium influx functional assay (FluxOR Potassium ion channel assay) in HEK293T cells transfected with KCC2; type: cell-based
T1 construct: expressed in transfected cells; host or cells: HEK293T
T1 sequence (Q9H2X9 1-1139): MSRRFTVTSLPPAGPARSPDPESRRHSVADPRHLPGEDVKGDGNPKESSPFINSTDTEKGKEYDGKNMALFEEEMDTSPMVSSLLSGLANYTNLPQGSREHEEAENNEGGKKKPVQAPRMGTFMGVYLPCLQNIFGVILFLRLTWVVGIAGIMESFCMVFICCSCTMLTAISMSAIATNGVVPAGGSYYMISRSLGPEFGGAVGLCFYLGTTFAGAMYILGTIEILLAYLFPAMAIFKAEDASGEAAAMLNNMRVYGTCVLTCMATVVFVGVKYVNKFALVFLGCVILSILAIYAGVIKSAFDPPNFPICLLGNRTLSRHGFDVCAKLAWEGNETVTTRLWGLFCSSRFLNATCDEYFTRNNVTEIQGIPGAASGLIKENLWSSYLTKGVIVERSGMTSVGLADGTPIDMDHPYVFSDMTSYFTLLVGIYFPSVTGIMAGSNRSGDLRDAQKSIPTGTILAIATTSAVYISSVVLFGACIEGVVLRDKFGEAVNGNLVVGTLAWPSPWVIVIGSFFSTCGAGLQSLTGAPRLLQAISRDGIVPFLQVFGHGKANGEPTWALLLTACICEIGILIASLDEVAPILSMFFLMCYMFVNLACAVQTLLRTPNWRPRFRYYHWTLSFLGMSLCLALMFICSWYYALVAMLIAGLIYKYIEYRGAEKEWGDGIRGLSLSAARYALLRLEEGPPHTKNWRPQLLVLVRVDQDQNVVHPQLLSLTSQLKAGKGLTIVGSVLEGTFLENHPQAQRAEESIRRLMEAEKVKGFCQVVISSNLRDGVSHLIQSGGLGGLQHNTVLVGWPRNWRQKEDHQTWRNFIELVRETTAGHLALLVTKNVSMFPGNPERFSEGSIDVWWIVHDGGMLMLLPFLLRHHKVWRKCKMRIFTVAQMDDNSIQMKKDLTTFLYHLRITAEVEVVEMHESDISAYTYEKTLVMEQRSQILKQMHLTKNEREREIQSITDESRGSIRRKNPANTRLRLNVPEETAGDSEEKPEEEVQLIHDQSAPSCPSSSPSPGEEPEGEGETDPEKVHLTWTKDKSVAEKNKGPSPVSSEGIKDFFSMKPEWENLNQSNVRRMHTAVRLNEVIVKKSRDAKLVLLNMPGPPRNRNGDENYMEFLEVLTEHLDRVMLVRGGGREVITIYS
Method: To verify the efficacy of the compounds to inhibit KCC2 in vitro a functional assay was used (FluxOR Potassium ion channel assay, Life Technologies), which measures the influx of thallium ions (replacing potassium) which permeate into the cell through KCC2. The thallium ions inside the cell are then measured using a Thallium sensor, the fluorescence of which increases after binding with thallium. In particular, the HEK293T cells were transfected with KCC2 or with the empty plasmid (mock control cells). After two days the cells were treated with the thallium sensor and in a solution without chlorine ions. After one hour the cells were washed and treated with furosemide and DMSO as negative control, again in a solution without chlorine ions and in the presence of a sodium/potassium pump inhibitor (ouabain). After twenty minutes the plates were placed in the Tecan Spark reader. The inhibitory activity of furosemide, reported in Table 1, was measured monitoring the fluorescence after thallium (TlSO4) and chlorine (NaCl) application.

[3] = tested on: mice C57BL/6J aged >24 months; assay: Open field test after benzodiazepine administration; type: in vivo; settings: elderly mice (>24 months), 2 mg/kg in saline, vs elderly vehicle or young mice treated with diazepam
Description: FIG. 2 illustrates the evaluation of the effect of benzodiazepines in elderly mice which is indicative of a potentiated GABAergic transmission. a) Quantification of the immobility time during the open field test of mice treated with vehicle (young, n=7, elderly, n=6) or diazepam (young, n=7, elderly, n=7) (two-way ANOVA, Tukey post hoc test, *** P<0.001). b) Quantification of the distance travelled during the open field test by mice treated with vehicle (young, n=7, elderly, n=6) or diazepam (young, n=7, elderly, n=7) (two-way ANOVA, Tukey post hoc test, […], *** P<0.001).
In fact, benzodiazepines are positive allosteric modulators of GABAAR. Benzodiazepines are commonly used as anxiolytic drugs, but can produce anxiogenic or highly sedative effects depending on the polarity of GABAergic transmission. To test the reaction of elderly mice to benzodiazepines, mice C57BL/6J aged >24 months and 2-month old controls C57BL/6J were treated with diazepam (2 mg/kg in saline solution) or vehicle (2% DMSO in saline solution). The open field test was then carried out to evaluate locomotor activity and the level of anxiety of the mice tested. […] This is indicative of an over-sedation reaction of the diazepam in the elderly mice, which may reflect the presence of hyper-inhibitory GABAergic transmission. This evidence in accordance with the […] of KCC2 (FIG. 1b).

| Structure (SMILES) | spatial memory (discrimination index of the OL test) [1] | % KCC2 inhibition at 10 μM ([2]; 10 μM, HEK293T cells transfected with KCC2, thallium fluorescence) | inhibition at 50 µM ([2]; HEK-293T, 50 μM, HEK293T cells transfected with KCC2, thallium fluorescence) [%] | inhibition at 100 µM ([2]; HEK-293T, 100 μM, HEK293T cells transfected with KCC2, thallium fluorescence) [%] | IC50 ([2]; KCC2 inhibition in vitro) [µM] | immobility time during the open field test ([3]; FIG. 2a) | distance travelled during the open field test ([3]; FIG. 2b) |
| --- | --- | --- | --- | --- | --- | --- | --- |
| NS(=O)(=O)c1cc(C(=O)O)c(NCc2ccco2)cc1Cl [Furosemide, furosemide] | significantly restored the poor spatial memory of the elderly mice to the level of the young mice | Inactive | 39.8 ± 1.6 | 45.1 ± 6.4 | 455 |  |  |
| CN1C(=O)CN=C(c2ccccc2)c2cc(Cl)ccc21 [diazepam] |  |  |  |  |  | significantly higher immobility time | significantly lower distance travelled |
